In PMC9139161, “Phenolics from Chrozophora oblongifolia Aerial Parts as Inhibitors of α-Glucosidases and Advanced Glycation End Products: In-Vitro Assessment, Molecular Docking and Dynamics Studies” (Biology, 2022):
“And” between values parts separate entries of the source, which are not always exact repeats. Equal entries are not always repeated. Where two headings read alike, the source gives them in different places.

Experiments:
[1] = target: T1, porcine pancreatic lipase type II (Sus scrofa, UniProt P00591); assay: Pancreatic lipase inhibition (p-NPD substrate); format: biochemical; conditions: for IC50: porcine pancreatic lipase, p-NPD substrate, read-out: Pancreatic lipase IC50 (Mean ± SE)
T1 construct: purchased sigma Aldrich L3126
T1 sequence (P00591 1-450): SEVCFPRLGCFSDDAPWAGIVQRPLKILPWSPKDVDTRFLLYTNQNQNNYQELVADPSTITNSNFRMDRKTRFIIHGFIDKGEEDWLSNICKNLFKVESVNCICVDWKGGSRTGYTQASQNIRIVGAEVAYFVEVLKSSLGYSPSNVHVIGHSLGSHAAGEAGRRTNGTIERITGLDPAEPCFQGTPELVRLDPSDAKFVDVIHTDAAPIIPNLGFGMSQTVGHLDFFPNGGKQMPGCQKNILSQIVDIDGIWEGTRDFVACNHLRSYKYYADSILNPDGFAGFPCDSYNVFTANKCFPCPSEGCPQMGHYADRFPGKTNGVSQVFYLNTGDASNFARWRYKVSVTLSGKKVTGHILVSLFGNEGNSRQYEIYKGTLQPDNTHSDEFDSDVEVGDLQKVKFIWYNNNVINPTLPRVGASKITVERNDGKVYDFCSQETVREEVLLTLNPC
Method: The inhibition of pancreatic lipase activity was assessed using p-nitrophenyl dodecanoate (p-NPD, Sigma-Aldrich, St. Louis, MO, USA cat#N0252) as substrate and porcine pancreatic lipase type II (PPL, sigma Aldrich, cat#L3126) which was described previously with slight modification. Solutions of the provided compounds were prepared in final concentrations of 50 µM in 5% DMSO. […] In a Tris-HCl buffer (100 mM, pH 8); 50 μL of PPL (1 mg/mL) was incubated with 25 μL of samples/blank for 10 min at 37 °C. Then, 10 μL of solution p-NPD (10 mM, in isopropanol) was added followed by dilution of the final volume to 200 μL with Tris-HCl buffer. The mixture was incubated for 20 min at 37 °C and absorbance was then measured at 405 nm on a TECAN microplate reader (Männedorf, Switzerland). After that, the percentage of lipase inhibition was assessed (Supplementary Table S1 and Figure S1).

[2] = target: T2, α-Glucosidase from Saccharomyces cerevisiae (Saccharomyces cerevisiae, UniProt P53341); assay: α-Glucosidase inhibition (pNPG colorimetric); format: biochemical
T2 construct: purchased Sigma-Aldrich G003
T2 sequence (P53341 whole entry): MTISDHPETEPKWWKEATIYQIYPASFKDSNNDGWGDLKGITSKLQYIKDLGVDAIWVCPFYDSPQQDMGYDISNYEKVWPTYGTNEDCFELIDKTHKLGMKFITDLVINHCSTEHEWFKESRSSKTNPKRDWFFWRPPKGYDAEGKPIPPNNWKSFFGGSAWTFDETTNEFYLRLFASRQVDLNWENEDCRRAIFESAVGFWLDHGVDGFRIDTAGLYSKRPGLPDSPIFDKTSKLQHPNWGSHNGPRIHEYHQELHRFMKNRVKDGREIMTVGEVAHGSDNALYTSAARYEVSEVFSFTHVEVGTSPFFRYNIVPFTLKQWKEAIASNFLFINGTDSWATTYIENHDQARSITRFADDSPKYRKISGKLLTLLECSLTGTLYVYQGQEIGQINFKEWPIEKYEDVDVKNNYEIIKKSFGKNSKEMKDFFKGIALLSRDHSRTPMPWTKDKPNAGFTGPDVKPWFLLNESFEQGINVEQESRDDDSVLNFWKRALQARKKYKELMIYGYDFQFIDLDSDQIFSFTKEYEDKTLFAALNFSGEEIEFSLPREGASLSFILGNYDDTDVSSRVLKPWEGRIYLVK
Method: α-Glucosidase from Saccharomyces cerevisiae (Sigma-Aldrich, St. Louis, MO, USA cat#G003) was used in this assay. Solutions of the different compounds were prepared in 1000 µM final concentrations in dimethyl sulfoxide (DMSO). Compounds that exceeded 50% inhibition at this concentration were serially diluted to determine their half-maximal inhibitory concentration (IC50).
Briefly, 25 μL of samples/blank were incubated for 10 min at 37 °C with 50 μL of α-glucosidase (0.6 U/mL) in phosphate buffer (0.1 M, pH 7) in 96-microwell plates. The mixture was then incubated at 37 °C for 5 min with 25 μL of 3 mM pNPG in phosphate buffer (pH 7). A microplate reader (TECAN, Männedorf, Switzerland) was used to measure p-nitrophenol release from pNPG substrate at 405 nm to determine enzyme activity. Then, % α-glucosidase inhibition was estimated.

[3] = system: advanced glycation end products (AGEs) formation, BSA-fructose model; assay: AGEs formation inhibition, BSA-fructose assay; format: biochemical; conditions: AGEs fluorescence, 72 h, 37 °C; read-out: BSA-Fructose Model IC50 (Mean ± SE)
Method: The isolated compounds were prepared at final concentrations of 500 µM in DMSO in the BSA-fructose assay, and 1000 µM in all other AGEs assays. Compounds that exceeded 50% inhibition at this concentration were serially diluted to determine their IC50. All tests were conducted using quercetin (positive control).
According to the previous report, the inhibition test for AGE formation was assessed using the BSA-fructose model. Briefly, BSA (50 mg/mL) and fructose (1.25 M) (in 200 mM phosphate buffer, pH 7.4, with 0.02% sodium azide) were incubated with Sample/blank in the dark for 72 h at 37 °C, (1:1:1 by volume). On a microplate reader (Fluostar Omega BMG Labtech, Ortenberg, Germany), fluorescent AGEs were detected using excitation and emission wavelengths of 355 nm and 460 nm, respectively. Triplicates of all experiments were performed, and the percentage of AGEs inhibition was calculated.

[4] = ABTS assay; conditions: ascorbic acid equivalents; mean ± SD, n = 3
Method: DMSO was used for the preparation of 0.5 mg/mL concentrations of isolated compounds, meanwhile, the positive control (ascorbic acid) was used to prepare a stock solution of 1000 µM in water; from which seven concentrations were prepared including 7.812, 15.625, 31.25, 62.5, 125, 250 and 500 µM to construct the concentration-response curve (Supplementary Data Figure S2). The activity of the tested compounds to scavenge the free radicals of ABTS (2,2′-azino-bis (3-ethylbenzothiazoline-6-sulfonic acid)) was assessed according to the methodology reported previously with slight modifications.
Five milliliters of aqueous solution (7 mM) of ABTS was mixed with 88 µL potassium persulfate (140 mM) and the mixture was kept in the dark for 16 h to produce ABTS radical cation (ABTS^•+). Then methanol was added to the reaction mixture to dilute the formed ABTS^•+ solution to an absorbance of 0.700 (1:50) at 690 nm.
Ten microliters of the tested compound were incubated with 190 μL of ABTS^•+ solution in a 96-well plate for thirty minutes in the dark and the absorbance was measured later using a microplate reader (TECAN, Männedorf, Switzerland) at 690 nm. Data are represented as means (n = 3) ± SD and the antioxidant effect of the tested compounds was calculated as µM Ascorbic acid equivalents by substitution in the linear regression equation (Supplementary Figure S2).

[5] = Ferric reducing antioxidant power (FRAP) assay; conditions: ascorbic acid equivalents; mean ± SD, n = 3
Method: Isolated compounds were dissolved in DMSO to prepare a 0.5 mg/mL concentration, meanwhile, the positive control (ascorbic acid) was used to prepare a stock solution of 1000 µM in water; from which seven concentrations were prepared including 15.625, 31.25, 62.5, 125, 250 and 500 µM to construct the dose-response curve. The method of the assay depends on the reduction of Fe^3+ to Fe^2+, which is chelated by 2,4,6-tris(2-pyridyl)-s-triazine (TPTZ) to form Fe^2+-TPTZ complex which is known as FRAP (ferric reducing antioxidant power). Briefly, 190 μL of FRAP reagent (300 mM sodium acetate buffer pH 3.6, 10 mM TPTZ, and 20 mM ferric chloride, (10:1:1)) was incubated in the dark with 10 μL of the isolated compound in a 96-well plate for 30 min at 37 °C and absorbance was determined at 620 nm using microplate reader (Tecan, San Jose, CA, USA). Data are represented as means (n = 3) ± SD and the antioxidant effect of the extract was calculated as µM Ascorbic acid equivalents by substitution in the linear regression equation (Supplementary Figure S3).

[6] = Saccharomyces cerevisiae enzyme, pNPG substrate, read-out: α-Glucosidase assay IC50 (Mean ± SE)

SMILES | IC50 [1] | IC50 [2] | IC50 [3] | ABTS [4] | FRAP [5] | Pancreatic lipase inhibitory effect (in words) ([1]; till 50 μM concentration) | IC50 [2, 6] | inhibition at 50 µM [1]
C[C@@H]1O[C@@H](OC[C@H]2O[C@@H](Oc3c(-c4ccc(O)c(O)c4)oc4cc(O)cc(O)c4c3=O)[C@H](O)[C@@H](O)[C@@H]2O)[C@H](O)[C@H](O)[C@H]1O [Compound 4, rutin] | > 50 µM | 754 µM | 37 µM | 1.972±0.059 mM AAE/mg | 2.658±0.168 mM AAE/mg and 2.66 mM AAE/mg | – | – | –
O=C(OC[C@H]1O[C@H](OC(=O)c2cc(O)c(O)c(O)c2)[C@H](O)[C@@H](OC(=O)c2cc(O)c(O)c(O)c2)[C@@H]1O)c1cc(O)c(O)c(O)c1 (stereo in doubt) [Compound 5, 1,3,6-trigalloyl glucose] | > 50 µM | – | 35 µM | 9.640±0.061 mM AAE/mg | 7.228±0.279 mM AAE/mg and 7.23 mM AAE/mg | did not show any inhibitory effect | 4.5 µM | –
O=c1cc(-c2ccc(O)cc2)oc2cc(O[C@@H]3O[C@H](CO)[C@@H](O)[C@H](O)[C@H]3O)cc(O)c12 [Compound 1, apeginin-7-O-β-D-glucoside] | > 50 µM | 408 µM | 303 µM | 0.702±0.050 mM AAE/mg | 0.225±0.003 mM AAE/mg and 0.23 mM AAE/mg | – | – | 4.48%
O=C(O)[C@H]1O[C@@H](Oc2c(-c3ccc(O)c(O)c3)oc3cc(O)cc(O)c3c2=O)[C@H](O)[C@@H](O)[C@H]1O [Compound 3, quercetin-3-O-β-D-galacturonic acid] | > 50 µM | – | 500 µM | 0.210 ±0.012 mM AAE/mg | 0.494±0.066 mM AAE/mg and 0.49 mM AAE/mg | – | 385 µM | 2.26%
O=C(O)[C@H]1O[C@@H](Oc2c(-c3ccc(O)c(O)c3)oc3cc(O)cc(O)c3c2=O)[C@H](O)[C@@H](O)[C@@H]1O [Compound 2, quercetin-3-O-β-D-glucuronic acid] | > 50 µM | – | 262 µM | 0.646 ±0.072 mM AAE/mg | 0.727±0.021 mM AAE/mg and 0.73 mM AAE/mg | – | 545 µM | 1.92%
